# Earlier results as cited in patent US20260344672A1, “CROP ENHANCEMENT” (SYNGENTA CROP PROTECTION AG, priority 2023, published 2026).
# Test system: plant
# Conditions: reported in the literature
Compound,early flowering and grain maturation,leaf area and plant height,photosynthetic capacity (plant greenness),root system and root hair development,tiller number and productivity,"plant health, tolerance to environmental stresses"
N#Cc1nn(-c2c(Cl)cc(C(F)(F)F)cc2Cl)c(N)c1[S+]([O-])C(F)(F)F (stereo not drawn) [fipronil],stimulate early flowering and grain maturation,increase leaf area and plant height,increase photosynthetic capacity (plant greenness),enhance overall root system and root hair development,increase tiller number and productivity,–
COC(=O)N(OC)c1ccccc1COc1ccn(-c2ccc(Cl)cc2)n1 [pyraclostrobin],–,–,–,–,–,improve plant health e.g. to improve the tolerance to environmental stresses
